Test results from ChEMBL document CHEMBL5543071, “Benzopyran hydrazones with dual PPARα/γ or PPARα/δ agonism and an anti-inflammatory effect on human THP-1 macrophages” (Eur J Med Chem, 2024).

How the values were obtained:
THP-1 [1] = experiment: Cytotoxicity against human THP-1 cells assessed as reduction in cell viability at 10 to 30 uM incubated for 72 hrs; type: toxicity, cell-based; details: thp-1, 72 h, dose 10-30 µM
[2] = biological target: T1, Peroxisome proliferator-activated receptor gamma (Homo sapiens, UniProt P37231); type: cell-based, COS7
T1 sequence (P37231 whole entry): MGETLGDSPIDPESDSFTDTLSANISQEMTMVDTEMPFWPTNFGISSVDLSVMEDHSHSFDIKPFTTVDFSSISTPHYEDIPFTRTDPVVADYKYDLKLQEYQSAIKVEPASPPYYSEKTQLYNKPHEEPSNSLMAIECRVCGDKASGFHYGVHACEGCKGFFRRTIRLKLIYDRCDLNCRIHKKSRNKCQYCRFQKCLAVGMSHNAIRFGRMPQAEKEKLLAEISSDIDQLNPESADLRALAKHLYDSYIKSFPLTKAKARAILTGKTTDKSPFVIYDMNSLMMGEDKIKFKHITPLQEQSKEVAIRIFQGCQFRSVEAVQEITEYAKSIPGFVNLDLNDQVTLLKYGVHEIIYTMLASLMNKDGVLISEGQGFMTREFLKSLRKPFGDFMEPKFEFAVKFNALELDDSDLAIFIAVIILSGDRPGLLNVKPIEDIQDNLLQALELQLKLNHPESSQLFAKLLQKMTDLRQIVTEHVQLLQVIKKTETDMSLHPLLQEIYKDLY
Description: Agonist activity at human PPARgamma transfected in african green monkey COS7 cells assessed transcriptional activation incubated for 24 hrs by luciferase assay

THP-1 [3] = experiment: Cytotoxicity against human THP-1 cells assessed as reduction in cell viability at 100 uM incubated for 72 hrs; type: toxicity, cell-based; details: thp-1, 72 h

EC50 [2] [µM]	SMILES	Activity (THP-1 [1])	Activity (THP-1 [3])
	C/C(=C\CCC1(C)CCc2cc(OCc3ccc(F)cc3)ccc2O1)CC/C=N/Nc1ncc(Cl)cc1C(F)(F)F (stereo not given)	Non-Toxic	
	CC1(CC/C=N/Nc2nc3ccccc3s2)CCc2cc(OCc3ccc(F)cc3)ccc2O1 (stereo not given)	Non-Toxic	
5.54	CC1(CC/C=N/Nc2ncc(Cl)cc2C(F)(F)F)CCc2cc(OCc3ccc(F)cc3)ccc2O1 (stereo not given)	Non-Toxic	Toxic
